How the values were obtained:
[1] = system: Loblolly pine megagametophytes; experiment: Loblolly pine extrusion and initiation on solid media #945 with brassinolide, eight weeks; assay type: cell-based
Description: In each replicate set of ten explants, the frequency of extrusion was measured as the number of extrusions per ten megagametophytes. A successful extrusion was scored where a filamentous mass of tissue that had emerged from the megagametophyte was clearly visible. Initiation was also scored at the end of the 8th week. In each replicate set of ten explants, the frequency of initiation was recorded as the number of successful initiations out of the ten megagametophytes. A successful initiation was scored where the extruded tissue had clearly proliferated and at least one somatic embryo was visible. Often, visualization was aided by the fact that the zygotic tissue was brownish while new somatic embryos were whitish and translucent. Also, somatic embryos could often be seen growing directly from zygotic embryos.
This experiment measured the effects of varying concentrations of brassinolide on extrusion and initiation in Loblolly pine. The explants in this experiment were megagametophytes isolated from cone collections from four open-pollinated trees, representing a multiplicity of genotypes. The seeds contained Stage 2-4 zygotic embryos. Seeds were sterilized as described in Example 1. Seed coats were split and the megagametophytes were isolated by removing integuments and nucellus. Isolated megagametophytes were placed on solid media. […] The treatment media consisted of media #945 with added brassinolide varying from 0.005 to 0.1 μM (Table 10). The experiment consisted of three replications per treatment, per genotype.
Initiation frequency was increased by the addition of brassinolide at all concentrations (Table 12). There was no clear concentration effect within the tested range. […] One of skill in the art could empirically determine the upper and lower effective concentration of brassinolide which is effective in promoting initiation.

[2] = system: Pinus embryogenic cultures; conditions: solid initiation media containing 30-90 mg/l ABA; cited from earlier work
[3] = system: Loblolly pine megagametophytes; experiment: Vacuum infiltration of abscisic acid solutions (liquid media #1036) before culture on solid media #1042, eight weeks; assay type: cell-based
From the text: In this experiment the effects of megagametophyte pre-treatment by vacuum infiltration with abscisic acid solutions of varying concentration was investigated. The explants were megagametophytes from summer cones of four open pollinated individual trees, representing multiplicity of genotypes. The seeds contained Stage 2-4 zygotic embryos. Megagametophytes were excised from sterilized seeds, as described in Example 4.
Prior to culturing, the megagametophytes were vacuum infiltrated with liquid growth media #1036 (see Table 47) containing 0, 1, 5, or 25 ppm abscisic acid (See Table 19 for treatment media compositions). After vacuum infiltration, each megagametophyte was placed on 2 ml solid culture media #1042 (see Table 47 for composition) in a single well on a culture well plate.
One possible explanation for the results is that vacuum treatment may damage the megagametophytes.

[4] = genotype 5-1207, treatment 2, 1 ppm abscisic acid
[5] = genotype 5-1207, treatment 3, 5 ppm abscisic acid
[6] = genotype 5-1207, treatment 4, 25 ppm abscisic acid
[7] = genotype 7-1051, treatment 2, 1 ppm abscisic acid
[8] = genotype 7-1051, treatment 3, 5 ppm abscisic acid
[9] = genotype 7-1051, treatment 4, 25 ppm abscisic acid
[10] = genotype 11-1055, treatment 2, 1 ppm abscisic acid
[11] = genotype 11-1055, treatment 3, 5 ppm abscisic acid
[12] = genotype 11-1055, treatment 4, 25 ppm abscisic acid
[13] = genotype 11-1507, treatment 2, 1 ppm abscisic acid
[14] = genotype 11-1507, treatment 3, 5 ppm abscisic acid
[15] = genotype 11-1507, treatment 4, 25 ppm abscisic acid
[16] = total, treatment 2, 1 ppm abscisic acid
[17] = total, treatment 3, 5 ppm abscisic acid
[18] = total, treatment 4, 25 ppm abscisic acid

CC(C)[C@H](C)[C@@H](O)[C@H](O)[C@@H](C)[C@H]1CC[C@H]2[C@@H]3COC(=O)[C@H]4C[C@H](O)[C@H](O)C[C@]4(C)[C@H]3CC[C@]12C [brassinolide]
Initiation frequency vs control ([1]; brassinolide at all concentrations (0.005 to 0.1 μM)): increased | % of Megagametophytes Extruding ([1]; genotype FC, 0.005 μM Br): 40.0 (5.8) % | % of Megagametophytes Initiating ([1]; genotype FC, 0.005 μM Br): 0 (0) % | % of Megagametophytes Extruding ([1]; genotype FC, 0.01 μM Br): 20.0 (5.8) % | % of Megagametophytes Initiating ([1]; genotype FC, 0.01 μM Br): 6.7 (3.3) % | % of Megagametophytes Extruding ([1]; genotype FC, 0.025 μM Br): 40.0 (5.8) % | % of Megagametophytes Initiating ([1]; genotype FC, 0.025 μM Br): 0 (0) % | % of Megagametophytes Extruding ([1]; genotype FC, 0.05 μM Br): 26.7 (3.3) % | % of Megagametophytes Initiating ([1]; genotype FC, 0.05 μM Br): 0 (0) % | % of Megagametophytes Extruding ([1]; genotype FC, 0.1 μM Br): 31.8 (16.5) % | % of Megagametophytes Initiating ([1]; genotype FC, 0.1 μM Br): 3.7 (3.7) % | % of Megagametophytes Extruding ([1]; genotype FT, 0.005 μM Br): 96.7 (3.3) % | % of Megagametophytes Initiating ([1]; genotype FT, 0.005 μM Br): 53.3 (12.0) % | % of Megagametophytes Extruding ([1]; genotype FT, 0.01 μM Br): 86.7 (8.8) % | % of Megagametophytes Initiating ([1]; genotype FT, 0.01 μM Br): 43.3 (16.7) % | % of Megagametophytes Extruding ([1]; genotype FT, 0.025 μM Br): 93.3 (6.7) % | % of Megagametophytes Initiating ([1]; genotype FT, 0.025 μM Br): 46.7 (12.0) % | % of Megagametophytes Extruding ([1]; genotype FT, 0.05 μM Br): 93.3 (3.3) % | % of Megagametophytes Initiating ([1]; genotype FT, 0.05 μM Br): 53.3 (8.8) % | % of Megagametophytes Extruding ([1]; genotype FT, 0.1 μM Br): 86.7 (3.3) % | % of Megagametophytes Initiating ([1]; genotype FT, 0.1 μM Br): 50 (3.3) % | % of Megagametophytes Extruding ([1]; genotype FW, 0.005 μM Br): 83.3 (8.8) % | % of Megagametophytes Initiating ([1]; genotype FW, 0.005 μM Br): 20 (5.8) % | % of Megagametophytes Extruding ([1]; genotype FW, 0.01 μM Br): 50.0 (10.0) % | % of Megagametophytes Initiating ([1]; genotype FW, 0.01 μM Br): 3.3 (3.3) % | % of Megagametophytes Extruding ([1]; genotype FW, 0.025 μM Br): 64.8 (13.4) % | % of Megagametophytes Initiating ([1]; genotype FW, 0.025 μM Br): 20.7 (11.6) % | % of Megagametophytes Extruding ([1]; genotype FW, 0.05 μM Br): 70.0 (11.5) % | % of Megagametophytes Initiating ([1]; genotype FW, 0.05 μM Br): 13.3 (8.8) % | % of Megagametophytes Extruding ([1]; genotype FW, 0.1 μM Br): 73.3 (8.8) % | % of Megagametophytes Initiating ([1]; genotype FW, 0.1 μM Br): 30 (5.8) % | % of Megagametophytes Extruding ([1]; genotype FX, 0.005 μM Br): 53.3 (8.8) % | % of Megagametophytes Initiating ([1]; genotype FX, 0.005 μM Br): 26.7 (8.8) % | % of Megagametophytes Extruding ([1]; genotype FX, 0.01 μM Br): 63.3 (14.5) % | % of Megagametophytes Initiating ([1]; genotype FX, 0.01 μM Br): 33.3 (12.0) % | % of Megagametophytes Extruding ([1]; genotype FX, 0.025 μM Br): 70.0 (5.8) % | % of Megagametophytes Initiating ([1]; genotype FX, 0.025 μM Br): 23.3 (3.3) % | % of Megagametophytes Extruding ([1]; genotype FX, 0.05 μM Br): 73.3 (8.8) % | % of Megagametophytes Initiating ([1]; genotype FX, 0.05 μM Br): 43.3 (6.7) % | % of Megagametophytes Extruding ([1]; genotype FX, 0.1 μM Br): 76.7 (8.8) % | % of Megagametophytes Initiating ([1]; genotype FX, 0.1 μM Br): 36.7 (8.8) % | concentrations at which brassinolide was effectively used ([1]; in our media): 0.005 to 0.25 µM | % of Megagametophytes Extruding ([1]; total, 0.005 μM Br): 68.3% | % of Megagametophytes Initiating ([1]; total, 0.005 μM Br): 25.0% | % of Megagametophytes Extruding ([1]; total, 0.01 μM Br): 55.0% | % of Megagametophytes Initiating ([1]; total, 0.01 μM Br): 21.7% | % of Megagametophytes Extruding ([1]; total, 0.025 μM Br): 67.0% | % of Megagametophytes Initiating ([1]; total, 0.025 μM Br): 22.7% | % of Megagametophytes Extruding ([1]; total, 0.05 μM Br): 65.8% | % of Megagametophytes Initiating ([1]; total, 0.05 μM Br): 27.5% | % of Megagametophytes Extruding ([1]; total, 0.1 μM Br): 67.1% | % of Megagametophytes Initiating ([1]; total, 0.1 μM Br): 30.1%

CC1=CC(=O)CC(C)(C)C1(O)/C=C/C(C)=C\C(=O)O (stereo not drawn) [ABA, 5-(1-hydroxy-2,6,6,-trimethyl-4-oxo-2-cyclohexen-1-yl)-3-methyl-2,4-penta dienoic acid]
initiation frequencies [2]: 30-38% | % of Megagametophytes Extruding [3, 4]: 23.3 (14.5) % | % of Megagametophytes Initiating [3, 4]: 20 (11.5) % | % of Megagametophytes Extruding [3, 5]: 10.0 (5.8) % | % of Megagametophytes Initiating [3, 5]: 10 (5.8) % | % of Megagametophytes Extruding [3, 6]: 13.3 (13.3) % | % of Megagametophytes Initiating [3, 6]: 10 (10.0) % | % of Megagametophytes Extruding [3, 7]: 33.3 (8.8) % | % of Megagametophytes Initiating [3, 7]: 6.7 (3.3) % | % of Megagametophytes Extruding [3, 8]: 30.0 (11.5) % | % of Megagametophytes Initiating [3, 8]: 10 (5.8) % | % of Megagametophytes Extruding [3, 9]: 56.7 (12.0) % | % of Megagametophytes Initiating [3, 9]: 13.3 (8.8) % | % of Megagametophytes Extruding [3, 10]: 53.3 (3.3) % | % of Megagametophytes Initiating [3, 10]: 16.7 (3.3) % | % of Megagametophytes Extruding [3, 11]: 66.7 (12.0) % | % of Megagametophytes Initiating [3, 11]: 30 (11.5) % | % of Megagametophytes Extruding [3, 12]: 36.7 (3.3) % | % of Megagametophytes Initiating [3, 12]: 13.3 (3.3) % | % of Megagametophytes Extruding [3, 13]: 16.7 (6.7) % | % of Megagametophytes Initiating [3, 13]: 6.7 (6.7) % | % of Megagametophytes Extruding [3, 14]: 6.7 (3.3) % | % of Megagametophytes Initiating [3, 14]: 6.7 (3.3) % | % of Megagametophytes Extruding [3, 15]: 6.7 (3.3) % | % of Megagametophytes Initiating [3, 15]: 0 (0.0) % | % of Megagametophytes Extruding [3, 16]: 31.7% | % of Megagametophytes Initiating [3, 16]: 12.5% | % of Megagametophytes Extruding [3, 17]: 28.4% | % of Megagametophytes Initiating [3, 17]: 14.2% | % of Megagametophytes Extruding [3, 18]: 28.4% | % of Megagametophytes Initiating [3, 18]: 9.2% | promotion of extrusion or initiation ([3]; vacuum infiltration, 1, 5 or 25 ppm): did not promote extrusion or initiation

From US6492174B1, “Methods of initiating embryogenic cultures in plants” (Institute of Paper Science & Technology, priority 2000, dated 2002)
